The source of these data is US8497371B2, “Pipemidic acid derivative autotaxin inhibitors” (University of Memphis Research Foundation, priority 2009, dated 2013).

This test has as its target ATX (Homo sapiens, UniProt Q13822). Put plainly: ATX inhibition assay with FS-3 substrate. It counts as biochemical. Set-up: conditioned serum-free medium (CCM) from MDA-MB-435 cells as the source of ATX; endogenous in cells; host or cells: MDA-MB-435 cells (about 10x concentrated serum-free conditioned medium). Conditions: for % Response at 10 μM (FS-3): 10 μM compound, FS-3 hydrolysis normalized to vehicle control (low = strong inhibition), mean ± S.D.; for single dose response comparison by aromatic substituent and position: Table 2, same values as % Response at 10 μM.

Protocol: ATX inhibition was assayed using the substrate FS-3 (Echelon Biosciences, Inc., Salt Lake City, Utah, USA). The FS-3 assay used ˜10 times concentrated conditioned serum-free medium (CCM) from MDA-MB-435 cells as the source of ATX, while CCM comprised one-third of the total volume.
All assays were performed in 96-well plates with data read at 1 minute intervals by a Synergy2 system (BioTek, Winooski, Vt.). […] Results are shown at one hour, at which point all fluorescence and absorbance changes as a function of time were linear. All readings were normalized to vehicle control after subtraction of fluorescence in the absence of CCM. Data are shown as the mean±S.D. of at least three wells. All experiments were repeated at least twice and results are shown.

As to “2-(4-{[(4-dimethylaminonapthylphenyl)amino]carbonothioyl}-1-piperazinyl)-8-ethyl-5-oxo-5,8-dihydropyrido[2,3-d]pyrimidine-6-carboxylic acid [Compound 2]”, the “% Response at 10 μM (FS-3)” value turned out to be 59.9 ± 1.5%.
As for `CCn1cc(C(=O)O)c(=O)c2cnc(N3CCN(C(=S)Nc4ccc(-n5cccn5)cc4)CC3)nc21` [Compound 9, 2-(4-{[(4-pyrazolephenyl)amino]carbonothioyl}-1-piperazinyl)-8-ethyl-5-oxo-5,8-dihydropyrido[2,3-d]pyrimidine-6-carboxylic acid], the “% Response at 10 μM (FS-3)” value worked out at 68.6 ± 1.1%.
With `CCn1cc(C(=O)O)c(=O)c2cnc(N3CCN(C(=S)Nc4ccc(C(=O)O)cc4)CC3)nc21` [Compound 4, 2-(4-{[(4-carboxylphenyl)amino]carbonothioyl}-1-piperazinyl)-8-ethyl-5-oxo-5,8-dihydropyrido[2,3-d]pyrimidine-6-carboxylic acid], the “% Response at 10 μM (FS-3)” value was 72.7 ± 2.2%.
With `CCn1cc(C(=O)O)c(=O)c2cnc(N3CCN(C(=S)Nc4ccccc4C(=O)OC)CC3)nc21` [Compound 5, 2-(4-{[(2-methylesterphenyl)amino]carbonothioyl}-1-piperazinyl)-8-ethyl-5-oxo-5,8-dihydropyrido[2,3-d]pyrimidine-6-carboxylic acid], the “% Response at 10 μM (FS-3)” value is recorded as 51.2 ± 1.3%.
With `CCn1cc(C(=O)O)c(=O)c2cnc(N3CCN(C(=S)Nc4ccccc4F)CC3)nc21` [Compound 30, 2-(4-{[(2-fluorophenyl)amino]carbonothioyl}-1-piperazinyl)-8-ethyl-5-oxo-5,8-dihydropyrido[2,3-d]pyrimidine-6-carboxylic acid], the “% Response at 10 μM (FS-3)” value came to 77.3 ± 1.6%; the “single dose response comparison by aromatic substituent and position” value is 77.3 ± 1.6.
`CCn1cc(C(=O)O)c(=O)c2cnc(N3CCN(C(=S)Nc4ccc(S(=O)(=O)N5CCOCC5)cc4)CC3)nc21` [Compound 6, 2-(4-{[(4-morpholinosulfonylphenyl)amino]carbonothioyl}-1-piperazinyl)-8-ethyl-5-oxo-5,8-dihydropyrido[2,3-d]pyrimidine-6-carboxylic acid]: the “% Response at 10 μM (FS-3)” value is listed as 64.1 ± 2.8%.
Turning to `CCn1cc(C(=O)O)c(=O)c2cnc(N3CCN(C(=S)Nc4c(C)cc(C)cc4C)CC3)nc21` [Compound 8, 2-(4-{[(2,4,6-mesitylphenyl)amino]carbonothioyl}-1-piperazinyl)-8-ethyl-5-oxo-5,8-dihydropyrido[2,3-d]pyrimidine-6-carboxylic acid], the “% Response at 10 μM (FS-3)” value is 53.5 ± 1.6%.
For `CCn1cc(C(=O)O)c(=O)c2cnc(N3CCN(C(=S)Nc4ccc(OC)cc4)CC3)nc21` [Compound 24, 2-(4-{[(4-methoxyphenyl)amino]carbonothioyl}-1-piperazinyl)-8-ethyl-5-oxo-5,8-dihydropyrido[2,3-d]pyrimidine-6-carboxylic acid], the “% Response at 10 μM (FS-3)” value is given as 79.7 ± 0.9%; the “single dose response comparison by aromatic substituent and position” value amounted to 79.7 ± 0.9.
Taken in the same sequence, the figures for `CCn1cc(C(=O)O)c(=O)c2cnc(N3CCN(C(=S)Nc4ccccc4C(F)(F)F)CC3)nc21` [Compound 12, 2-(4-{[(2-trifluoromethylphenyl)amino]carbonothioyl}-1-piperazinyl)-8-ethyl-5-oxo-5,8-dihydropyrido[2,3-d]pyrimidine-6-carboxylic acid] were 100.8 ± 1.9% and 100.8 ± 1.9.
Consider `CCn1cc(C(=O)Oc2ccccc2)c(=O)c2cnc(N3CCN(C(=S)Nc4ccccc4)CC3)nc21` [Compound 16, 2-(4-{[(phenyl)amino]carbonothioyl}-1-piperazinyl)-8-ethyl-5-oxo-5,8-dihydropyrido[2,3-d]pyrimidine-6-carboxylic acid phenyl], for which the “% Response at 10 μM (FS-3)” value was 56.4 ± 1.0%.
